The subject of this assay is benzodiazepine receptors. Nature of the assay: in vivo displacement of 3H-flunitrazepam from brain benzodiazepine receptors. The settings on record: female mice, intraperitoneal, 15 min before 3H-FNM i.v.; forebrain 20 min after 3H-FNM. The text has this: The pharmaceutical properties of the compounds of the invention can be illustrated by determining their capability for displacing radioactivity labelled flunitrazepam from benzodiazepine receptors.
The displacement activity of the compounds of the invention may be found by determining the ED50 value. The ED50 value represents the dose (mg/kg) of a test substance which causes the specific binding of flunitrazepam to benzodiazepine receptors in a living brain to be reduced to 50% of the control value.
Such an in vivo test is carried out as follow:
Principle. Twenty minutes after a dose of ^3 H-flunitrazepam (^3 H-FNM) (200 μCi/kg, i.v.) the amount of specific ^3 H-FNM binding to brain benzodiazepine receptors has reached its maximum value.
Test procedure. […] The amounts of radioactivity on the filters are determined by conventional scintillation counting. […]
Results. The ED50 value is determined from dose response curves. If only one dose of test substance is administered the ED50 value is calculated as follows, provided that the inhibition of specific binding is within the range of 25-75%: [formula] where Co is specific binding in controls and Cx is specific binding in mice treated with test substance.
Background: Displacement assays read how much labelled ligand stays bound in the presence of the test substance.

For the compound `c1ccc2c(c1)N1CCCC1c1c(-c3noc(C4CC4)n3)ncn1-2` (stereo not shown), the “in vivo ED50 (dose reducing specific 3H-flunitrazepam binding to brain benzodiazepine receptors to 50% of the control value)” value was 5.1 mg/kg.

The record behind these values is patent US4795749A, “Imidazopyrroloquinoxaline compounds” (A/S Ferrosan, priority 1985, dated 1989).
